Assay [1] concerns PC-3 prostate cancer cells. The assay is described as follows: Cytotoxicity assay, sensitization to LT-α (CellTiter-Glo). It counts as cell-based, human. The note with it: 24 h. How it is done: (§1) Cellular cytotoxicity experiments were conducted in white 96-well flat bottom plates (Greiner Bio-One #655074). PC-3 prostate cancer cells were seeded into microtiter wells in 90 μL RPMI medium with 10% fetal calf serum and antibiotics at 5,000 cells per well, and then incubated overnight at 37°C with 5% CO2/95% air. The next day, compounds diluted into the same culture medium and added in 10 μL aliquots to achieve various final concentrations, maintaining a uniform total volume per well. Either TNF (at 10 nM final) or LT-α (at ~90 pM final) resuspended in 10 μL of RPMI with 10% fetal calf serum and antibiotics was added to wells or an equal volume of medium was applied for the control well. The plates were then further incubated for 24 h. Subsequently, cell viability was assessed by the addition of 25 μL per well of Cell-Titer-Glo reagent (Promega, Inc). Plates were read using a Luminoskan Ascent luminometer.
(§2) The cellular activity of cIAP1 and cIAP2 inhibitors was evaluated through experiments where cytotoxicity of a human prostate tumor cell line (PC-3) was assessed in the presence or absence of cytokines TNF and LT-α. The experimental approach we used was to provide TNF or LT-α at a fixed concentration, which by itself was non-cytotoxic, then titrate SMAC mimetics into the cell cultures. […] The compound series described in this work has been tested against a broad range of cell lines (data not shown and [23]) and single agent toxicity was only observed for SKOV3 ovarian tumor cells. This agrees with the findings of Varfolomeev, Vince and Lalaoui, respectively.
On the technique in general: ATP-based viability assays read luminescence as a measure of living cells.

The next assay has as its target cIAP1-BIR3 (Homo sapiens, UniProt Q13490). The experiment in a line: FP competition assay, displacement of SMAC-rhodamine. Conditions: for binding affinity for cIAP1 and cIAP2 compared with XIAP: estimated by relative Ki values, cIAP1 and cIAP2 vs XIAP.
A further assay deals with cIAP1-BIR2 (Homo sapiens, UniProt Q13490). The assay is described as above.
Sequence of cIAP1-BIR2 (Q13490 144-260): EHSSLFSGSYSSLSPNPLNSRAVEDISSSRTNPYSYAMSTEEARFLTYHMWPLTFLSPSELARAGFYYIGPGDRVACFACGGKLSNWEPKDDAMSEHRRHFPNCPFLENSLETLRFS
The target of another assay is cIAP2-BIR3 (Homo sapiens, UniProt Q13489). The description is as above.
Sequence of cIAP2-BIR3 (Q13489 243-333): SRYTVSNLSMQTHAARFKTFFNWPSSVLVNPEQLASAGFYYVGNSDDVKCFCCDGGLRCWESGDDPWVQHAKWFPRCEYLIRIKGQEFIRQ
The target of a further assay is cIAP2-BIR2 (Homo sapiens, UniProt Q13489). The assay is described as above.
Sequence of cIAP2-BIR2 (Q13489 129-246): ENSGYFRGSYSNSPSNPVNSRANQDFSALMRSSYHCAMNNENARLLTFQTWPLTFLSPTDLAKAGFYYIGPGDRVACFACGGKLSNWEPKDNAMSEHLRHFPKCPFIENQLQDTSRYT
For assay [2], the system named is PC-3 prostate cancer cells. The experiment in a line: Cytotoxicity assay, sensitization to TNF (CellTiter-Glo). It counts as cell-based, human. Conditions: 10 nM TNF, 24 h. Here is the method:
as §1, §2

The mark [3] stands for this setting: cIAP1 BIR3 Ki, 25 mM Hepes pH 7.5, 1 mM TCEP, 0.005% Tween 20, 20 nM SMAC-rhodamine, 40 mM β-glycerol phosphate, ~50 nM protein, Ki calculated from IC50.

The EC50 is the concentration giving half of the maximal effect. One may read the Ki as a dissociation constant, usually derived from enzyme kinetics or from competition with a known ligand.

Values joined by “and” are separate entries in the source; they are usually repeats but may differ in a detail not shown here. Equal values may be shown once. No end group written: not given here.

Sequence of cIAP1-BIR3 (Q13490 257-356): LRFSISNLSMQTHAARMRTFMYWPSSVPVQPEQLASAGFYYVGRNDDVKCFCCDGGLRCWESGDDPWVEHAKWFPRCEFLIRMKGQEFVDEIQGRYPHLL
Description for cIAP1-BIR2: (§3) Solutions for assessing SMAC-rhodamine binding to various BIR domains were empirically optimized. […] For cIAP1-BIR3, the assay buffer was 25 mM Hepes [pH 7.5] containing 40 mM β-glycerol phosphate, 1 mM TCEP, and 0.005% Tween 20, typically with 20 nM SMAC-rhodamine. For cIAP1-BIR2, cIAP2-BIR2 and cIAP2-BIR3, assays were performed in 25 mM Hepes [pH 7.5] containing 1 mM TCEP and 0.005% Tween 20, typically with 20 nM SMAC-rhodamine.
(§4) For cIAP1-BIR2, assays were conducted using 25 mM Hepes [pH 7.5] containing 1 mM TCEP, 0.005% Tween 20, ~1 μM cIAP1-BIR2, and 20 nM SMAC-rhodamine. For cIAP1-BIR3, assays were performed using the same buffered solution, except 40 mM β-glycerol phosphate was added and the cIAP1-BIR3 concentration was reduced to 50 nM. For cIAP2-BIR2, assays included a buffer containing 25 mM Hepes [pH 7.5] containing 1 mM TCEP, 0.005% Tween 20, 1 μM cIAP2-BIR2, and 20 nM SMAC-rhodamine. […] IC50 values were determined with a nonlinear fit using Prism software. Ki values were determined from the IC50 values using an online program developed by Nikolovska-Coleska et al. [26].
Description for cIAP1-BIR3: as §3, §4
Description for cIAP2-BIR2: as §3, §4
Description for cIAP2-BIR3: as §3, §4

As for `CN[C@@H](C)C(=O)N[C@H](C(=O)N1CCC[C@H]1C(=O)N[C@@H]1CCCc2ccccc21)C(C)C` [compound 1], in assay [1] (Homo sapiens, representative curves, 90 pM LT-α, CellTiter-Glo, read-out: EC50, sensitization of PC-3 tumor cells to LT-α (Fig 5b)), the concentration giving a half-maximal response (EC50) worked out at 19 nM. Moreover, the Ki at cIAP1-BIR3 (Ki against cIAP1-BIR3, FP assay) is 24 ± 1 nM; on cIAP1-BIR3 (setting [3]), 20 nM; on cIAP1-BIR2, 840 nM; at cIAP2-BIR3 it was 40 ± 10 nM; at cIAP2-BIR2, 2340 nM. Further, at cIAP1-BIR3, the “binding affinity for cIAP1 and cIAP2 compared with XIAP” value (“binding affinity … compared with XIAP” below) was “higher affinity binding to cIAP1 and cIAP2 than XIAP”.
As for `CC[C@H](C)[C@H](NC(=O)[C@H](C)NC)C(=O)N1CCC[C@H]1C(=O)N[C@@H]1CCCc2ccccc21` [compound 2], the Ki was 40 nM on cIAP1-BIR3 (setting [3]), 1110 nM on cIAP1-BIR2, 90 nM at cIAP2-BIR3 and 2080 nM on cIAP2-BIR2. Further, the “binding affinity … compared with XIAP” value on cIAP1-BIR3 was “higher affinity binding to cIAP1 and cIAP2 than XIAP”.
With `CC[C@H](NC(=O)[C@H](C)NC)C(=O)N1CCC[C@H]1C(=O)N[C@@H]1CCCc2ccccc21` [compound 3], the Ki is 60 nM at cIAP1-BIR3 (setting [3]), 2340 nM at cIAP1-BIR2, 60 nM at cIAP2-BIR3 and 5270 nM on cIAP2-BIR2. For the same compound, the “binding affinity … compared with XIAP” value at cIAP1-BIR3 was “higher affinity binding to cIAP1 and cIAP2 than XIAP”.
In the case of `CN[C@@H](C)C(=O)N[C@@H](CC(C)C)C(=O)N1CCC[C@H]1C(=O)N[C@@H]1CCCc2ccccc21` [compound 5], the Ki on cIAP1-BIR3 (setting [3]) was 60 nM; on cIAP1-BIR2, 1330 nM; on cIAP2-BIR3 it was 120 nM; on cIAP2-BIR2, 4350 nM.
Consider `CN[C@@H](C)C(=O)N[C@@H](CC(=O)OC)C(=O)N1CCC[C@H]1C(=O)N[C@@H]1CCCc2ccccc21` [compound 6], for which the inhibitory constant (Ki) on cIAP1-BIR3 (setting [3]) was 80 nM; on cIAP1-BIR2, 2160 nM; at cIAP2-BIR3 it was 190 nM; on cIAP2-BIR2 it was 6380 nM.
For `CN[C@@H](C)C(=O)N[C@@H](CC(=O)O)C(=O)N1CCC[C@H]1C(=O)N[C@@H]1CCCc2ccccc21` [compound 7], the inhibition constant Ki on cIAP1-BIR3 (setting [3]) was 9400 nM; on cIAP1-BIR2, over 57200 nM; at cIAP2-BIR3, 12600 nM; at cIAP2-BIR2, over 56700 nM.
On the same counts, the results for `CN[C@@H](C)C(=O)N[C@@H](CCC(N)=O)C(=O)N1CCC[C@H]1C(=O)N[C@@H]1CCCc2ccccc21` [compound 8] are 80 nM, 1260 nM, 150 nM and 4070 nM.
As to `CN[C@@H](C)C(=O)N[C@H](C(=O)N[C@@H](CCCNC(N)=N[N+](=O)[O-])C(=O)N[C@@H]1CCCc2ccccc21)C(C)C` [compound 9], the Ki is 50 nM on cIAP1-BIR3 (setting [3]), 810 nM on cIAP1-BIR2, 70 nM on cIAP2-BIR3 and 2620 nM at cIAP2-BIR2.
On the same counts, the results for `CN[C@@H](C)C(=O)N[C@H](C(=O)N[C@@H](CCCNC(=O)OCc1ccccc1)C(=O)N[C@@H]1CCCc2ccccc21)C(C)C` [compound 10] are 280 nM, 1410 nM, 220 nM and 2070 nM.
Take `CN[C@@H](C)C(=O)N[C@H](C(=O)N[C@@H](CCC(N)=O)C(=O)N[C@@H]1CCCc2ccccc21)C(C)C` [compound 11]: the inhibitory constant (Ki) is 720 nM on cIAP1-BIR3 (setting [3]), 3250 nM at cIAP1-BIR2, 550 nM at cIAP2-BIR3 and 5500 nM at cIAP2-BIR2.
As to `CN[C@@H](C)C(=O)N[C@H](C(=O)N[C@@H](CCCCNC(=O)OCc1ccccc1)C(=O)N[C@@H]1CCCc2ccccc21)C(C)C` [compound 12], the Ki was 200 nM on cIAP1-BIR3 (setting [3]), 3310 nM at cIAP1-BIR2, 500 nM at cIAP2-BIR3 and 5460 nM at cIAP2-BIR2.
On the same counts, the results for `CN[C@@H](C)C(=O)N[C@H](C(=O)N[C@@H](CCCN)C(=O)N[C@@H]1CCCc2ccccc21)C(C)C` [compound 13] are 90 nM, 1470 nM, 70 nM and 3750 nM.
On the same counts, the results for `CN[C@@H](C)C(=O)N[C@H](C(=O)N[C@@H](CO)C(=O)N[C@@H]1CCCc2ccccc21)C(C)C` [compound 14] are 230 nM, 3090 nM, 300 nM and 6810 nM.
Regarding `CN[C@@H](C)C(=O)N[C@H](C(=O)N[C@@H](C)C(=O)Nc1cccc2ccccc12)C(C)C` [compound 15], the half-maximal effective concentration (EC50) in assay [2] (representative curves, CellTiter-Glo, read-out: EC50, sensitization of PC-3 tumor cells to TNF (Fig 5a)) turned out to be 5300 nM. For the same compound, the Ki at cIAP1-BIR3 (setting [3]) is 3230 nM and 3200 nM; on cIAP1-BIR2 it was 8960 nM; at cIAP2-BIR3, 5100 nM; on cIAP2-BIR2, 17500 nM.
`CN[C@@H](C)C(=O)N[C@H](C(=O)N1CCC[C@@H]1C(=O)Nc1cccc2ccccc12)C(C)C` [compound 16]: the inhibitory constant (Ki) was 180 nM and 200 nM on cIAP1-BIR3 (setting [3]); 1730 nM on cIAP1-BIR2; 200 nM at cIAP2-BIR3; 3350 nM at cIAP2-BIR2.
Consider `CC(C)[C@H](NC(=O)[C@H](C)N)C(=O)N[C@@H](C)C(=O)Nc1cccc2ccccc12` [compound 17], for which the inhibition constant (Ki) was 1230 nM on cIAP1-BIR3 (setting [3]), 3770 nM at cIAP1-BIR2, 980 nM at cIAP2-BIR3 and 5980 nM at cIAP2-BIR2.
On the same counts, the results for `CC(C)[C@H](NC(=O)[C@@H](N)CO)C(=O)N[C@@H](C)C(=O)Nc1cccc2ccccc12` [compound 19] are 4370 nM, 8330 nM, 17200 nM and 22400 nM.
On the same counts, the results for `CC[C@H](N)C(=O)N[C@H](C(=O)N[C@@H](C)C(=O)Nc1cccc2ccccc12)C(C)C` [compound 20] are 4770 nM, 24900 nM, 5290 nM and 43800 nM.
The matching figures for `CC(C)[C@H](NC(=O)[C@H](C)N)C(=O)N[C@@H](CCCNC(=O)OCc1ccccc1)C(=O)Nc1cccc2ccccc12` [compound 21]: 850 nM, 2770 nM, 990 nM and 4790 nM.
For the compound `CN[C@@H](C)C(=O)N[C@H](C(=O)N1CCC[C@H]1C(=O)NNc1ccccc1)C(C)C` [compound 22], the Ki on cIAP1-BIR3 (setting [3]) is 260 nM; at cIAP1-BIR2, 3620 nM; at cIAP2-BIR3, 560 nM; on cIAP2-BIR2, 5430 nM.
On the same counts, the results for `CN[C@@H](C)C(=O)N[C@H](C(=O)N[C@@H](CCCN=C(N)N)C(=O)NNc1ccccc1)C(C)C` [compound 28] are 1970 nM, 4390 nM, 1420 nM and 15400 nM.
The matching figures for `CN[C@@H](C)C(=O)N[C@@H](CCC(=O)O)C(=O)N[C@@H](C)C(=O)NNc1ccccc1` [compound 29]: 10900 nM, 7670 nM, 23000 nM and 25100 nM.
For `CN[C@@H](C)C(=O)N[C@H](C(=O)N[C@@H](CCCNC(=O)OCc1ccccc1)C(=O)NNc1ccccc1)C(C)C` [compound 31], the Ki at cIAP2-BIR3 was 1290 nM; on cIAP2-BIR2 it was 2930 nM.
As for `CN[C@@H](C)C(=O)N[C@H](C(=O)N[C@@H](CCCN)C(=O)NNc1ccccc1)C(C)C` [compound 32], the Ki is 4010 nM on cIAP1-BIR3 (setting [3]), 3820 nM at cIAP1-BIR2, 2170 nM at cIAP2-BIR3 and 10900 nM on cIAP2-BIR2.
The matching figures for `CN[C@@H](C)C(=O)N[C@H](C(=O)N[C@@H](CCCCN)C(=O)NNc1ccccc1)C(C)C` [compound 35]: 2830 nM, 2180 nM, 1350 nM and 5090 nM.
The matching figures for `CC(C)[C@H](NC(=O)[C@H](C)N)C(=O)N1CCC[C@H]1C(=O)NNc1ccccc1` [compound 36]: 340 nM, 6110 nM, 570 nM and 12900 nM.
For `CN[C@@H](C)C(=O)N[C@H](C(=O)N1CCC[C@H]1C(=O)Nc1ccc2ccccc2n1)C(C)C` [compound 39], the EC50 in assay [2] (PC-3 cells, cell viability, read-out: TNF EC50) was 70 nM; in assay [1] (PC-3 cells, ~90 pM LT-α, cell viability, read-out: LT-α EC50), 30 nM. Moreover, the inhibitory constant (Ki) on cIAP1-BIR3 (setting [3]) is 80 nM.
Regarding “AVPIAQK-NH2 [SMAC-7-mer, AVPIAQK, reference compound]”, the Ki at cIAP1-BIR3 (setting [3]) was 450 nM; on cIAP1-BIR2, 15400 nM; on cIAP2-BIR3 it was 420 nM; on cIAP2-BIR2, 26400 nM.

The values are drawn from publication PMC5019375, “Characterization of Potent SMAC Mimetics that Sensitize Cancer Cells to TNF Family-Induced Apoptosis” (PLoS ONE, 2016).
